Test results from US20250230226A1, “PLXDC1/PLXDC2 ACTIVATORS AND THEIR USE IN THE TREATMENT OF BLOOD VESSEL DISORDERS” (THE REGENTS OF THE UNIVERSITY OF CALIFORNIA, priority 2019, published 2025).

System: LL/2 lung cancer tumor endothelial cells
Assay: Lung LL2 ex vivo model of tumor angiogenesis
Format: cell-based, mouse
Details: 20 μm
How it was run: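 Live/dead imaging with FDA and PI, taken e.g. 48 h post-drug under fixed channel settings, measures treatment effects on endothelial cells sprouting from Lewis lung tumor explants. Explants were seeded in Matrigel drops and grown ~4 days in endothelial growth medium, 37 °C, 5% CO2, before dosing.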

CCCCCCCCCCCCCCOc1ccc(S(=O)(=O)c2cnc3ccc([S+](C)[O-])cc3c2N2CCC(N3CCC(N4CCN(C)CC4)CC3)CC2)cc1 (centres unmarked) [Compound 346]
48 hrs (morphology observations) (48 hours, LL/2 tumor endothelial cells): * (50% or less of cells vesicularize in cell shape)
Cell death (drug treatment for two days, ratio of red area to total endothelial cell area): 20%
